Consider 1 molecule from patent US20040096356A1, “Assay device for determining analytes in a liquid dairy product” (priority 1997, published 2004).

Assay [1] concerns the target T1, receptor BlaR-CTD (Bacillus licheniformis, UniProt P12287).
T1 construct: the receptor BlaR-CTD is the carboxy-terminal region of BlaR
Kind of assay: 3-minute rapid test: strip test for β-lactam antibiotics in milk using BlaR-CTD. The class given is binding. Particulars: for Intensity 1st band: scale 0 to 10, reference band 6, 47° C., 1 min incubation + 2 min migration. The source says: (§1) According to a preferred embodiment of the invention an identifier is used which comprises a receptor sensitive to antibiotics having a β-lactam ring, which receptor is obtained from Bacillus licheniformis, such as the receptor BlaR or the receptor BlaR-CTD. The isolation and the peptide sequence of the protein BlaR are described in Y. Zhu et al., J. Bacteriol., 1137-1141 (1990); the receptor BlaR-CTD is the carboxy-terminal region of BlaR, whose isolation and peptide sequence are described in B. Joris et al., FEMS Microbiology Letters, 107-114 (1990).
(§2) This example illustrates the detection in milk of antibiotics having a β-lactam ring which are monitored by the health authorities. The test described in this example uses the receptor BlaR-CTD coupled with gold beads, which serve as labelling agents, and uses a support which is in the form of an assay device comprising a solid support on which membranes are fixed.
(§3) 3.79 ml of a solution of recognition agent BlaR-CTD having a concentration of 6.6 mg/ml are taken up in a sodium phosphate buffer, 20 mM pH 7. To this solution of BlaR-CTD are then added 41.71 ml of bicarbonate buffer (0.1 M sodium bicarbonate, pH 9) and 2 ml of a solution of N-hydroxysuccinimide 6-(biotinamido)caproic ester containing 2.23 mg/ml likewise of bicarbonate buffer. This solution is stirred gently on a LABINCO stirrer for tubes on a rotary axis (available from VEL, Belgium) at a rate of 2 revolutions/minute for 2 hours at ambient temperature and away from light. 2.5 ml of a solution of Tris buffer, 1 M pH 8 are incubated with the reaction mixture under the same conditions for 30 minutes. The solution thus obtained is dialysed against HNM buffer (Hepes 100 mM, pH 8, NaCl 100 mM, MgCl2 50 mM) for 24 hours. In this way a biotinylated BlaR-CTD solution is obtained which is diluted in HNM-BSA buffer (Hepes 500 mM, pH 8, NaCl 500 mM, MgCl2 250 mM, BSA 10 mg/ml) to a concentration of 250 μg of biotinylated BlaR-CTD per ml of buffer. This solution is stored at −20° C.
(§4) The biotinylated BlaR-CTD solution prepared in Example 3.1.1 is diluted 114.7 times with the HNM-BSA buffer (Hepes 500 mM, pH 8, NaCl 500 mM, MgCl2 250 mM, BSA 10 mg/ml). At room temperature, 22.5 parts by volume of this dilute biotinylated BlaR-CTD solution, 7.5 parts by volume of HNM-BSA buffer, 9.27 parts by volume of the gold particle suspension used to label the biotinylated BlaR-CTD and 6 parts by volume of reference gold particle suspension are mixed (see Example 3.1.4 below).
(§5) The first capture substance makes it possible to fix the BlaR-CTD coupled with the gold beads present in excess relative to the quantity of antibiotic present in the sample.
(§6) Assay devices containing membranes (2), (3) and (4) are used, assembled in accordance with the procedure described in Example 1.1. The membrane (3) of these devices carries on the proximal side the capture substance described in Example 32.1. and on the distal side the capture substance described in Example 3.2.2. The capture substances were deposited in accordance with the procedure described in Example 1.2.
7 samples of fresh milk are prepared, containing 0; 1; 2; 3; 4; 5 and 6 ppb, respectively, of penicillin G. Each of these solutions is then analysed as follows.
An aliquot is taken of 200 μl of milk sample and 45.27 μl of solution prepared in Example 3.1.3, and is placed in a glass flask. This mixture is incubated at 47° C. for 1 minute. An assay device is taken and is placed vertically in the glass flask such that the first end of the assay device is in contact with the mixture and such that the second end rests on the wall of the glass flask. The mixture is allowed to migrate over the assay device while the assembly is incubated at 47° C. for 2 minutes.
(§7) An intensity value ranging from 0 to 10 is awarded to the bands detected, the value 10 being given to the most intense band and the value 0 being given to the least intense band. On this scale, a value of 6 is awarded to the reference band. […]

Assay [2] addresses T1, receptor BlaR-CTD. The assay is described as follows: 9-minute test: strip test for β-lactam antibiotics in milk using BlaR-CTD. The class given is binding. Particulars: in 9 minutes; positive when first band is less intense than second band.
Text: as §1, §2, §3, §4, §5, §6
Six samples of fresh milk are prepared, containing 0; 4; 6; 8; 10 and 12 ppb, respectively, of cephapirin. Each of these solutions is then analysed as follows.
An aliquot is taken of 200 μl of milk sample and 45.27 μl of solution prepared in Example 3.1.3, and is placed in a glass flask. This mixture is incubated at 47° C. for 7 minutes. An assay device is taken and is placed vertically in the glass flask such that the first end of the assay device is in contact with the mixture in such a way that the second end rests on the wall of the glass flask. The mixture is allowed to migrate over the assay device while the assembly is incubated at 47° C. for 2 minutes.
as §7

T1 sequence (P12287 340-601): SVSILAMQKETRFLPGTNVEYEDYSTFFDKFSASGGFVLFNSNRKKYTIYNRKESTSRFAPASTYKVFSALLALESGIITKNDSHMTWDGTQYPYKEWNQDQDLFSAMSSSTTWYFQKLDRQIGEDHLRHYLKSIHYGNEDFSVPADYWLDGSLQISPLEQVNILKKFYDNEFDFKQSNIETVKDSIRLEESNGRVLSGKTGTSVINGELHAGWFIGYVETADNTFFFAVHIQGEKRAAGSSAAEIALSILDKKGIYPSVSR

In the case of `CC1(C)S[C@@H]2[C@H](NC(=O)Cc3ccccc3)C(=O)N2[C@H]1C(=O)O` [Penicillin G, penicillin G], the “Intensity 1st band” value worked out at 9 on receptor BlaR-CTD [1] (1 ppb penicillin G in fresh milk); 9 at receptor BlaR-CTD [1] (2 ppb penicillin G in fresh milk); 4 at receptor BlaR-CTD [1] (3 ppb penicillin G in fresh milk); 0 at receptor BlaR-CTD [1] (4 ppb penicillin G in fresh milk); 0 at receptor BlaR-CTD [1] (5 ppb penicillin G in fresh milk); 0 at receptor BlaR-CTD [1] (6 ppb penicillin G in fresh milk). For the same molecule, the “lowest concentration detected in a milk sample” value on receptor BlaR-CTD [1] (in 3 minutes, positive when first band is less intense than second band) was “less than 4 ppb”; at receptor BlaR-CTD [2] it was 3 ppb.
